# Data from US20220306587A1, “COMPOUNDS AND USE THEREOF FOR THE TREATMENT OF INFECTIOUS DISEASES AND CANCER” (AC BIOSCIENCE SA, priority 2019, published 2022).
# What was measured:
# [1] = biological target: T1, recombinant human Pyridoxal kinase (PDXK) (Homo sapiens, UniProt O00764); experiment: In vitro phosphorylation by recombinant human pyridoxal kinase (ADP formation, ADPglo luminescence); format: biochemical; conditions: 200 μM compound, 10 μg/ml rhPDXK, 1 mM ATP, 1 hour at 37° C.; FIG. 2
# T1 sequence (O00764 1-312): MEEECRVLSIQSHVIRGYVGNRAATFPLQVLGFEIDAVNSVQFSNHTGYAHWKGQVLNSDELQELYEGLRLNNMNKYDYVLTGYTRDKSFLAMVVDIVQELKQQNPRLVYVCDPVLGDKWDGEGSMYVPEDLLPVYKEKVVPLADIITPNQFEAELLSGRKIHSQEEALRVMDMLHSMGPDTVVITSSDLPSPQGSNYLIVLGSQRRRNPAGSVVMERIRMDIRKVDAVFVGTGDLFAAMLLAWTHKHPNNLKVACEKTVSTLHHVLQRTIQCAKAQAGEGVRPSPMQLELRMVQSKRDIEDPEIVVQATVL
# Procedure: ACB1906, A6770, 4-DOP (200 μM) and pyridoxal HCL (1 mM) were incubated with 10 μg/ml rhPDXK for 1 hour at 37° C. in the presence of 1 mM ATP containing—10 mM HEPES buffer with 0.05% Triton X-100, 0.01% Plurogenic F127, 25 μM Na3VO4 and 250 μM MgCl2. ADP formation was measured using the luminescence-based ADPglo kit from Promega. Statistical significance determined by Anova. *denotes p<0.05.
# ACB1906's ability to be phosphorylated by recombinant human Pyridoxal kinase (PDXK) in vitro was compared to the structurally similar known imidazole S1PL inhibitor A6770, the PDXK and S1PL non-specific inhibitor 4-deoxypyridoxine (4-DOP) and the natural pyridoxal ligand. […] Increased phosphorylation of thiazole compounds confers an advantage in therapeutic applications as this would be a limiting step for its ability to effect a therapeutically relevant modulation in S1P levels.
# [2] = biological target: T1, recombinant human Pyridoxal kinase (PDXK); conditions: already reported; cited from earlier work
# S1P lyase = biological target: T2, S1P lyase (Mus musculus, UniProt Q8R0X7); conditions: administered to mice; cited from earlier work
# T2 construct: host or cells: mice (in vivo)
# T2 sequence (Q8R0X7 1-568): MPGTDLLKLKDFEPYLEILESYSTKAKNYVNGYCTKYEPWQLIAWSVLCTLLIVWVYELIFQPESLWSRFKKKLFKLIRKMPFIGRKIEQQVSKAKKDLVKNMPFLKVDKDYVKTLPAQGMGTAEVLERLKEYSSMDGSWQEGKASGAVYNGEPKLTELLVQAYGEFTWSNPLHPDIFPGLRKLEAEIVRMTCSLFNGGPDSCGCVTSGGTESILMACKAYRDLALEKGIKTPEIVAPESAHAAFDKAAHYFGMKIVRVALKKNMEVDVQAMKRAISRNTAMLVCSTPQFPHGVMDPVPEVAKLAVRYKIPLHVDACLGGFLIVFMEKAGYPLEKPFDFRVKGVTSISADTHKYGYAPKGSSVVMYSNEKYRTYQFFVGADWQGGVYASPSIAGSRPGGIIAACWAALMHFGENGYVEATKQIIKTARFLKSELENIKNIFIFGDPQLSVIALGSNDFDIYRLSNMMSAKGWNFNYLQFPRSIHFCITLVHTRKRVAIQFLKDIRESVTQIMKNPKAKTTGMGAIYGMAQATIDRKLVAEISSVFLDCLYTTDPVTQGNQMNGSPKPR
structure (smiles),measurement,setting,value
CC(=O)c1nc(CO)cs1 [Compound 6],ability to be phosphorylated (ADP formation) in comparison to A6770,[1],~2 fold
"CC(=O)c1nc(CO)c[nH]1 [Compound A6770, 1-(4-(Hydroxymethyl)-1H-imidazol-2-yl)ethan-1-one]",phosphorylation by PDXK to A6770-P,[2],reported to phosphorylate
"CC(=O)c1nc([C@@H](O)[C@H](O)[C@H](O)CO)c[nH]1 [THI, 1-(4-((1R,2S,3R)-1,2,3,4-Tetrahydroxybutyl)-1H-imidazol-2-yl)ethan-1-one]",S1P lyase activity,S1P lyase,inhibits S1P lyase activity
